Converted amounts (≈) assume the structure as drawn.
Legend:
Assay in all cases: minimum inhibitory concentration (ETEST)
[1] = test system: Neisseria bacilliformis; details: isolate id (sample isolate): Co000780_5; population: general population; antibiotic use in previous 6 months: No
Method: (§1)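 Oropharyngeal Neisseria isolates from MSM and employees in Belgium were identified to species by MALDI-TOF MS. MICs of azithromycin, ceftriaxone and ciprofloxacin were determined by ETEST on GC agar after 24 h at 36.5 °C and 5-7% CO2, in mg/L. Values beyond the strip range are reported as >256 (azithromycin) or <0.016 (ceftriaxone); isolates that did not grow are NA.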

[2] = test system: Neisseria cinerea; details: population: general population, antibiotic use in previous 6 months: No
Method: as §1

[3] = test system: Neisseria lactamica; details: population: general population, antibiotic use in previous 6 months: No
Method: as §1

[4] = test system: Neisseria mucosa/macacae
Method: as §1

[5] = test system: Neisseria oralis; details: population: general population, antibiotic use in previous 6 months: No
Method: as §1

[6] = test system: Neisseria subflava/flavescens/perflava
Method: as §1

CC[C@H]1OC(=O)[C@H](C)[C@@H](O[C@H]2C[C@@](C)(OC)[C@@H](O)[C@H](C)O2)[C@H](C)[C@@H](O[C@@H]2O[C@H](C)C[C@H](N(C)C)[C@H]2O)[C@](C)(O)C[C@@H](C)CN(C)[C@H](C)[C@@H](O)[C@]1(C)O [azithromycin]
Details	minimum inhibitory concentration [µg/mL]
[1]	2 (≈ 2.67 µM)

Details	minimum inhibitory concentration [µg/mL]
[2], isolate id (sample isolate): Co000769_3	1 (≈ 1.34 µM)
[2], isolate id (sample isolate): Co000776_4	24 (≈ 32 µM)
[2], isolate id (sample isolate): Co000776_5	32 (≈ 42.7 µM)
[2], isolate id (sample isolate): Co000782_1	2 (≈ 2.67 µM)
[3], isolate id (sample isolate): Co000761_1	2 (≈ 2.67 µM)
[3], isolate id (sample isolate): Co000771_1	1 (≈ 1.34 µM)
[5], isolate id (sample isolate): Co000761_7	2 (≈ 2.67 µM)
[5], isolate id (sample isolate): Co000763_1	1 (≈ 1.34 µM)
[5], isolate id (sample isolate): Co000766_2	1.5 (≈ 2 µM)
[5], isolate id (sample isolate): Co000770_1	2 (≈ 2.67 µM)
[5], isolate id (sample isolate): Co000774_1	3 (≈ 4.01 µM)
[5], isolate id (sample isolate): Co000776_1	4 (≈ 5.34 µM)
[5], isolate id (sample isolate): Co000776_1.1	3 (≈ 4.01 µM)
[5], isolate id (sample isolate): Co000779_2	4 (≈ 5.34 µM)
[5], isolate id (sample isolate): Co000790_5	2 (≈ 2.67 µM)

Details	minimum inhibitory concentration [µg/mL]
[4], isolate id (sample isolate): 19041762_2, population: MSM, antibiotic use in previous 6 months: Yes	3 (≈ 4.01 µM)
[4], isolate id (sample isolate): 19051904_1, population: MSM, antibiotic use in previous 6 months: Yes	2 (≈ 2.67 µM)
[4], isolate id (sample isolate): 19052394_2, population: MSM, antibiotic use in previous 6 months: Yes	4 (≈ 5.34 µM)
[4], isolate id (sample isolate): 19062968_1, population: MSM, antibiotic use in previous 6 months: Yes	16 (≈ 21.4 µM)
[4], isolate id (sample isolate): 19081774_2, population: MSM, antibiotic use in previous 6 months: No	24 (≈ 32 µM)
[4], isolate id (sample isolate): 19111422_4, population: MSM, antibiotic use in previous 6 months: No	1.5 (≈ 2 µM)
[4], isolate id (sample isolate): 19111422_7, population: MSM, antibiotic use in previous 6 months: No	1 (≈ 1.34 µM)
[4], isolate id (sample isolate): Co000770_5, population: general population, antibiotic use in previous 6 months: No	3 (≈ 4.01 µM)
[4], isolate id (sample isolate): Co000771_4, population: general population, antibiotic use in previous 6 months: No	6 (≈ 8.01 µM)
[4], isolate id (sample isolate): Co000772_3, population: general population, antibiotic use in previous 6 months: No	4 (≈ 5.34 µM)
[4], isolate id (sample isolate): Co000773_3, population: general population, antibiotic use in previous 6 months: No	2 (≈ 2.67 µM)
[4], isolate id (sample isolate): Co000779_1, population: general population, antibiotic use in previous 6 months: No	2 (≈ 2.67 µM)
[4], isolate id (sample isolate): Co000783_3, population: general population, antibiotic use in previous 6 months: No	6 (≈ 8.01 µM)
[4], isolate id (sample isolate): Co000783_6, population: general population, antibiotic use in previous 6 months: No	32 (≈ 42.7 µM)
[4], isolate id (sample isolate): Co000787_3, population: general population, antibiotic use in previous 6 months: No	4 (≈ 5.34 µM)
[4], isolate id (sample isolate): Co000788_1, population: general population, antibiotic use in previous 6 months: No	2 (≈ 2.67 µM)
[4], isolate id (sample isolate): Co000788_4, population: general population, antibiotic use in previous 6 months: No	4 (≈ 5.34 µM)
[6], isolate id (sample isolate): 19041762_1, population: MSM, antibiotic use in previous 6 months: Yes	> 256
[6], isolate id (sample isolate): 19041762_1.1, population: MSM, antibiotic use in previous 6 months: Yes	> 256
[6], isolate id (sample isolate): 19041780_1, population: MSM, antibiotic use in previous 6 months: Yes	> 256
[6], isolate id (sample isolate): 19042150_1, population: MSM, antibiotic use in previous 6 months: Yes	64 (≈ 85.4 µM)
[6], isolate id (sample isolate): 19042150_3, population: MSM, antibiotic use in previous 6 months: Yes	> 256
[6], isolate id (sample isolate): 19042756_1, population: MSM, antibiotic use in previous 6 months: Yes	> 256
[6], isolate id (sample isolate): 19042756_2, population: MSM, antibiotic use in previous 6 months: Yes	> 256
[6], isolate id (sample isolate): 19043201_1.1, population: MSM, antibiotic use in previous 6 months: No	96 (≈ 128 µM)
[6], isolate id (sample isolate): 19043201_2.1, population: MSM, antibiotic use in previous 6 months: No	> 256
[6], isolate id (sample isolate): 19043201_3, population: MSM, antibiotic use in previous 6 months: No	96 (≈ 128 µM)
[6], isolate id (sample isolate): 19043274_3, population: MSM, antibiotic use in previous 6 months: Yes	128 (≈ 171 µM)
[6], isolate id (sample isolate): 19050474_1, population: MSM, antibiotic use in previous 6 months: No	8 (≈ 10.7 µM)
[6], isolate id (sample isolate): 19050514_1, population: MSM, antibiotic use in previous 6 months: Yes	> 256
[6], isolate id (sample isolate): 19050949_1, population: MSM, antibiotic use in previous 6 months: No	3 (≈ 4.01 µM)
[6], isolate id (sample isolate): 19050949_2, population: MSM, antibiotic use in previous 6 months: No	4 (≈ 5.34 µM)
[6], isolate id (sample isolate): 19050949_2.1, population: MSM, antibiotic use in previous 6 months: No	4 (≈ 5.34 µM)
[6], isolate id (sample isolate): 19051904_2, population: MSM, antibiotic use in previous 6 months: Yes	2 (≈ 2.67 µM)
[6], isolate id (sample isolate): 19051904_3, population: MSM, antibiotic use in previous 6 months: Yes	1.5 (≈ 2 µM)
[6], isolate id (sample isolate): 19052394_1, population: MSM, antibiotic use in previous 6 months: Yes	2 (≈ 2.67 µM)
[6], isolate id (sample isolate): 19052394_1.1, population: MSM, antibiotic use in previous 6 months: Yes	1.5 (≈ 2 µM)
[6], isolate id (sample isolate): 19060089_1, population: MSM, antibiotic use in previous 6 months: Yes	8 (≈ 10.7 µM)
[6], isolate id (sample isolate): 19062994_1, population: MSM, antibiotic use in previous 6 months: Yes	2 (≈ 2.67 µM)
[6], isolate id (sample isolate): Co000761_2, population: general population, antibiotic use in previous 6 months: No	2 (≈ 2.67 µM)
[6], isolate id (sample isolate): Co000761_3, population: general population, antibiotic use in previous 6 months: No	4 (≈ 5.34 µM)
[6], isolate id (sample isolate): Co000761_5, population: general population, antibiotic use in previous 6 months: No	6 (≈ 8.01 µM)
[6], isolate id (sample isolate): Co000761_6, population: general population, antibiotic use in previous 6 months: No	3 (≈ 4.01 µM)
[6], isolate id (sample isolate): Co000762_3, population: general population, antibiotic use in previous 6 months: No	6 (≈ 8.01 µM)
[6], isolate id (sample isolate): Co000762_4, population: general population, antibiotic use in previous 6 months: No	4 (≈ 5.34 µM)
[6], isolate id (sample isolate): Co000763_2, population: general population, antibiotic use in previous 6 months: No	2 (≈ 2.67 µM)
[6], isolate id (sample isolate): Co000764_1, population: general population, antibiotic use in previous 6 months: No	8 (≈ 10.7 µM)
[6], isolate id (sample isolate): Co000764_2, population: general population, antibiotic use in previous 6 months: No	8 (≈ 10.7 µM)
[6], isolate id (sample isolate): Co000765_2, population: general population, antibiotic use in previous 6 months: No	3 (≈ 4.01 µM)
[6], isolate id (sample isolate): Co000765_3, population: general population, antibiotic use in previous 6 months: No	3 (≈ 4.01 µM)

— the supplement of paper PMC8741786
